# Active and inactive are the calls of the source. Cut-off read from the data, not from the text of the source, for most assays here: actives have a measured EC50 and inactives only a lower limit. Peptide text beside a SMILES is read from it. * marks the point of attachment. Cbz = O=C(OCc1ccccc1)*
# Experiments:
# [1] = target: T1, Corticotropin-releasing factor receptor 2/Corticotropin-releasing factor-binding protein (Homo sapiens, UniProt P24387+Q13324); test: Dose Response confirmation of uHTS hits for small molecule antagonists of the CRF-binding protein and CRF-R2 receptor complex.; assay type: functional; settings: read-out: IC50_Mean
# T1 sequence (Q13324 whole entry): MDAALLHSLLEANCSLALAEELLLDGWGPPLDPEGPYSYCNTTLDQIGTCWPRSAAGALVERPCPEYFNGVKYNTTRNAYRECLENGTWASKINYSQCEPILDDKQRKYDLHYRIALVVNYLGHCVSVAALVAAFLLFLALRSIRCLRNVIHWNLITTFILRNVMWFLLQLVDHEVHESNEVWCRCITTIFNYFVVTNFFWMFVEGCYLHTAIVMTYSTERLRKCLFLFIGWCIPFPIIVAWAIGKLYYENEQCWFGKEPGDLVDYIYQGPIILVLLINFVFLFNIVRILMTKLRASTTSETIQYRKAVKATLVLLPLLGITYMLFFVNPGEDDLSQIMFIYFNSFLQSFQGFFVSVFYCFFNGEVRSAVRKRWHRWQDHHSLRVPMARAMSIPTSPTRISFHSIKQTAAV
# T1 sequence (P24387 whole entry): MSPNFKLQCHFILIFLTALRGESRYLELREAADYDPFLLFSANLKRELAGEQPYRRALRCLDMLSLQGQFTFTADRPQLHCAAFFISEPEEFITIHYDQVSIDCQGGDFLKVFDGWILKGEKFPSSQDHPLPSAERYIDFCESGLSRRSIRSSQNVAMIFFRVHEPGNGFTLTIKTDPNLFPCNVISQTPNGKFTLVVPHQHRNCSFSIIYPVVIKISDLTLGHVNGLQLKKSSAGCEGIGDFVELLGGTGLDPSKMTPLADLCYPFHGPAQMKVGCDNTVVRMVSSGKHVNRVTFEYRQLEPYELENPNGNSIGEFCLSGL
# [2] = target: T1, Corticotropin-releasing factor receptor 2/Corticotropin-releasing factor-binding protein; test: activators of CRF receptor 2 with binding protein – uHTS hits, confirmation (AID 602473); assay type: functional; settings: read-out: EC50_Mean
# [3] = Trypanosoma cruzi growth suppression in host cells – NIH3T3 host cells, beta-gal luminescence, confirmation (AID 2044); assay type: functional, cell-based;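 note: intracellular parasites grown in NIH/3T3 mouse fibroblasts as host cells; luminescent beta-galactosidase reporter signal from transgenic T. cruzi replicating inside host cells; inhibitors lower the luminescence signal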
# [4] = NIH3T3 cell viability loss – ATP luminescence, mouse fibroblasts, counter-screen, dose response (AID 2010); assay type: functional, cell-based;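 note: cells exposed to compound for about 90 hours before reading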
# Streptococcus = test: GAS UMAA2166 growth inhibition – luminescence, BacTiterGlo, counter-screen for streptokinase expression inhibitor project, dose response (AID 1915); assay type: functional, organism-based;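 note: potency for reduction of bacterial viability or growth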
# Streptokinase A = target: T2, Streptokinase A (Streptococcus pyogenes serotype M1, UniProt P10520); test: viability-normalized secreted streptokinase activity reduction – plasminogen activation absorbance, OD405, dose response (AID 1914); assay type: functional, Streptococcus pyogenes M1 GAS;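 note: secreted streptokinase activity via plasminogen activation per viability signal from cell pellet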
# T2 sequence (P10520 whole entry): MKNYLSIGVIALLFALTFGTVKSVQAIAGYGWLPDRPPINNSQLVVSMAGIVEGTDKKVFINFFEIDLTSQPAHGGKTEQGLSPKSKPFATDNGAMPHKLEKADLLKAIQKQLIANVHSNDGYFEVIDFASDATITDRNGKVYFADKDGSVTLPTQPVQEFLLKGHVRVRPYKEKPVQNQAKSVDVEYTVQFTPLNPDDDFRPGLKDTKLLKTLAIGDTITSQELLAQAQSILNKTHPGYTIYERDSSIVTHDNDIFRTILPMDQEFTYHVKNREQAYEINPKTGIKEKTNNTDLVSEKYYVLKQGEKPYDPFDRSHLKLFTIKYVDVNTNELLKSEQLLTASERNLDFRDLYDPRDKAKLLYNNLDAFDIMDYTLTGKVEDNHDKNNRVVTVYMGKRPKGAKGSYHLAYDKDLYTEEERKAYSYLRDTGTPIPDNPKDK
# [5] = tested on: Streptococcus sp. 'group A'; test: Streptococcus pyogenes SK(-)GAS viability under kanamycin – luminescence, BacTiterGlo, confirmation, counter-screen for streptokinase expression inhibitor project, dose response (AID 1900); assay type: functional, organism-based
# Cytochrome P450 2C9 = Cytochrome P450 2C9 (Homo sapiens, UniProt P11712)
# Paired box protein Pax-8 = Paired box protein Pax-8 (Homo sapiens, UniProt Q06710); test: PAX8 transcriptional activity inhibition in RMG-I – RMG-I cells, luciferase, cherry-pick, dose response (AID 687027); assay type: functional, cell-based;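 note: luciferase reporter driven by Pax8 target thyroperoxidase promoter measured by SteadyGlo luminescence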
# Cytochrome P450 3A4 = Cytochrome P450 3A4 (Homo sapiens, UniProt P08684);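 note: CYP3A4 tested as one member of a cytochrome P450 panel screen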
# Chain of Cytochrome P450 3A4 (P08684 whole entry): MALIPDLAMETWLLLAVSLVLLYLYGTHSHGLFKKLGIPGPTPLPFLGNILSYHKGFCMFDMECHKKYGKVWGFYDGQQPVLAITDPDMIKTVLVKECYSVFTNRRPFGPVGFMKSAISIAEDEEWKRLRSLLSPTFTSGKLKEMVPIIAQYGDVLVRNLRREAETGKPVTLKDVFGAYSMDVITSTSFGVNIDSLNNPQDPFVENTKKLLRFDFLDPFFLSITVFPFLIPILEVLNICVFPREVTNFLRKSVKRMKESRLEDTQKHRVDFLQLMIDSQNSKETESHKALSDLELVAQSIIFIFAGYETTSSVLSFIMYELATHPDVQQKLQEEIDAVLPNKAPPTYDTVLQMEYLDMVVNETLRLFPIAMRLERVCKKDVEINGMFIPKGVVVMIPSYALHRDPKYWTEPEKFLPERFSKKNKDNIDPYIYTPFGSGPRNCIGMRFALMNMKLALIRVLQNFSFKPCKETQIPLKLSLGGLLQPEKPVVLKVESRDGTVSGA
# Chain of Cytochrome P450 2C9 (P11712 whole entry): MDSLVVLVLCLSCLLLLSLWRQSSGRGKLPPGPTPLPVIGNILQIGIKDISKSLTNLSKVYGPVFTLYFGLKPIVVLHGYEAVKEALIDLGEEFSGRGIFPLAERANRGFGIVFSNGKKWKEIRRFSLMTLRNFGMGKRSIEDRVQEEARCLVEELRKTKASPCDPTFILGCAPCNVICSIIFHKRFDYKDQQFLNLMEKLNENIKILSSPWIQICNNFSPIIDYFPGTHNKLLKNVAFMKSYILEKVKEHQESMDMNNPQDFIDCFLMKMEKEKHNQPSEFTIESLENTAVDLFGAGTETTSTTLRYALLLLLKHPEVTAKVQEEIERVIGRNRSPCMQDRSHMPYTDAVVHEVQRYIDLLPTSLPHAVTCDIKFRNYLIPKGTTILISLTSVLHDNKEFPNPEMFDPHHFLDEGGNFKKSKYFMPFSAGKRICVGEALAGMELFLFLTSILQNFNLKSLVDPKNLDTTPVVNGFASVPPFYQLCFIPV
# Chain of Paired box protein Pax-8 (Q06710 whole entry): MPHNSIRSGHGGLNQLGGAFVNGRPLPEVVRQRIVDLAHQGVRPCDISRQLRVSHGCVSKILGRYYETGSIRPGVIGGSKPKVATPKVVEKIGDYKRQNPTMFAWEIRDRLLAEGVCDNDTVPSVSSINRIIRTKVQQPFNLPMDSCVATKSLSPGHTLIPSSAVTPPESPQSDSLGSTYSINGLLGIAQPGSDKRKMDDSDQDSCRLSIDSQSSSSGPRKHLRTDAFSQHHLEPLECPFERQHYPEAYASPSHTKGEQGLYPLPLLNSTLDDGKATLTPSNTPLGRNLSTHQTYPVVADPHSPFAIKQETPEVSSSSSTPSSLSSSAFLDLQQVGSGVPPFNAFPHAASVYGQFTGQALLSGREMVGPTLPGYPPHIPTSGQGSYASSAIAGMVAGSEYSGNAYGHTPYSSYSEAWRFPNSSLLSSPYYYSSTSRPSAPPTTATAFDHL
compound,measurement,setting,value
Cc1ccc2nc(Cl)c(/C=C/C(=O)c3ccco3)cc2c1,IC50,[1],> 47.1 µM (inactive)
same,EC50,[2],> 53 µM (inactive)
C=CCc1cccc(/C=N/NC(=O)C(C)Nc2cccc(C)c2)c1O (centres undefined),EC50,[3],1.84 µM (active)
same,EC50,[4],> 30 µM (not active)
CCOC(=O)c1cnn(-c2nc(-c3ccccc3)cs2)c1C(F)(F)F,EC50,Streptococcus,> 150 µM (not active)
same,EC50,Streptokinase A,15.6 µM (active)
same,EC50,[5],14.6 µM (active)
Cc1cc(O)ccc1N1C(=O)c2cccc3cc([N+](=O)[O-])cc(c23)C1=O,EC50,[3],0.234 µM (active)
same,EC50,[4],> 60 µM (not active)
O=S(=O)(NCc1ccccc1)c1ccccc1NCCc1ccccc1,IC50,[1],> 47.1 µM (inactive)
same,EC50,[2],> 53 µM (inactive)
Cc1[nH]c(C)c(S(=O)(=O)NCCc2ccccc2)c1C(=O)N1CCCCC1,IC50,[1],> 47.1 µM (inactive)
same,EC50,[2],> 53 µM (inactive)
COc1ccc(C(=O)OCC(=O)N(C)C2CCS(=O)(=O)C2)cc1S(=O)(=O)N(C)Cc1ccccc1 (centres undefined),IC50,[1],> 47.1 µM (inactive)
same,EC50,[2],> 53 µM (inactive)
N#CCCn1c(=O)c(-c2ccccc2)nc2cnc(Oc3ccccc3)nc21,AC50,Cytochrome P450 2C9,15.8 µM (inconclusive)
C[C@@H]1CN([C@@H](C)CO)C(=O)c2cc(NC(=O)Nc3ccc(C(F)(F)F)cc3)ccc2O[C@@H](C)CCCCO[C@@H]1CN(C)Cc1ccncc1,AC50,Paired box protein Pax-8,9.03 µM (active)
O=C(OCCN1C(=O)c2ccccc2C1=O)c1cccc(OC(F)F)c1,IC50,[1],> 47.1 µM (inactive)
same,EC50,[2],> 53 µM (inactive)
CC1CC1c1ccc(/C=C(\C#N)C(=O)Nc2cccc(Cl)c2Cl)o1 (centres undefined),EC50,[2],> 53 µM (inactive)
Cc1nnsc1C(=O)NC1CCCc2c1cnn2-c1ccc(C(C)(C)C)cc1 (centres undefined),EC50,[3],1.98 µM (active)
same,EC50,[4],> 60 µM (not active)
CN1CCN(c2nc(N3CCN(c4ccccc4)CC3)ncc2F)CC1,EC50,[3],0.253 µM (active)
same,EC50,[4],> 30 µM (not active)
COc1c(CC=C(C)C)cc(C2CC(=O)c3c(O)cc(O)cc3O2)c(CC=C(C)C)c1O (centres undefined),EC50,Streptococcus,2.9 µM (active)
same,EC50,[5],3.02 µM (active)
Cc1ccc(NC(=O)CN(c2ccc(Cl)cc2)S(=O)(=O)c2cc([N+](=O)[O-])ccc2Cl)c(C)c1,EC50,[3],2.42 µM (active)
same,EC50,[4],> 60 µM (inconclusive)
O=C(c1cnn2c(C(F)(F)F)cc(-c3cccs3)nc12)N1CCN(Cc2ccccc2)CC1,EC50,[3],0.721 µM (active)
same,EC50,[4],> 60 µM (not active)
COc1cc(CN2CCN(C(=O)CC(C)C)CC2)cc(OC)c1OC,AC50,Cytochrome P450 2C9,28.2 µM (inconclusive)
COc1cc(CNCc2ccncc2)cc(Br)c1OCc1ccccc1F,EC50,[3],2.83 µM (active)
same,EC50,[4],> 30 µM (not active)
Cc1ccc(CN2CCN(Cc3nc4c(s3)CCCC4)CC2CCO)cc1 (centres undefined),EC50,[3],0.546 µM (active)
same,EC50,[4],> 60 µM (not active)
O=C1CC(NS(=O)(=O)c2ccc([N+](=O)[O-])cc2)CN1c1ccc(Cl)cc1 (centres undefined),EC50,[3],0.477 µM (active)
same,EC50,[4],> 60 µM (not active)
COCCNC(=O)CN(CC1CCCO1)C(=O)CCC(=O)Nc1ccccn1 (centres undefined),IC50,[1],> 47.1 µM (inactive)
same,EC50,[2],> 53 µM (inactive)
C[C@@H](C(=O)O)c1ccc(C(=O)c2cccs2)cc1 [(R)-SUPROFEN],AC50,Cytochrome P450 2C9,12.6 µM (inconclusive)
CC(C)CCN=C(S)NC1CCCC1,AC50,Cytochrome P450 2C9,39.8 µM (inconclusive)
same,AC50,Cytochrome P450 3A4,22.4 µM (inconclusive)
O=C(N/N=C/c1ccc(-c2cccc(C(F)(F)F)c2)o1)c1cccc(F)c1,EC50,[3],1.15 µM (active)
same,EC50,[4],> 60 µM (not active)
CC(C)[C@H](NC(=O)OCc1ccccc1)C(=O)N[C@H](C=O)Cc1ccccc1 (Cbz-Val-Phe-aldehyde),AC50,Cytochrome P450 2C9,39.8 µM (inconclusive)
O=C(CCC(=O)N1CCOc2ccc(Cl)cc21)NCc1ccccc1,EC50,[2],> 53 µM (inactive)
Cc1cccc(CN2CCN(CC(=O)O)C2=O)c1,AC50,Cytochrome P450 3A4,15.8 µM (inconclusive)
Cc1[nH]cnc1C(=O)N/N=C/c1ccc([N+](=O)[O-])s1,EC50,Streptococcus,5.18 µM (active)
same,EC50,[3],0.449 µM (active)
same,EC50,[5],2.91 µM (active)
same,EC50,[4],> 60 µM (not active)
Cc1c(C(=O)Nc2nc3ccccc3[nH]2)oc2ccc(Br)cc12,EC50,[3],1.63 µM (active)
same,EC50,[4],> 60 µM (not active)
CCn1/c(=N\C(=O)CS(=O)(=O)c2ccc(C)cc2)sc2cccc(OC)c21,EC50,[3],1.2 µM (active)
same,EC50,[4],8.46 µM (active)
Cn1nc([N+](=O)[O-])nc1Oc1ccccc1C(=O)N1CCOCC1,EC50,[3],0.117 µM (active)
same,EC50,[4],> 60 µM (not active)
Cc1nnc2n(Cc3ccccc3)c(=O)c3c4c(sc3n12)COC(C)(C)C4,IC50,[1],> 47.1 µM (inactive)
same,EC50,[2],> 53 µM (inactive)
CN1CCN(C(CNC(=O)C(=O)Nc2ccc3c(c2)OCCO3)c2ccc(F)cc2)CC1 (centres undefined),EC50,[3],0.952 µM (active)
same,EC50,[4],> 60 µM (not active)
Clc1ccc2c(N/N=C/c3cccnc3)ccnc2c1,EC50,[3],0.931 µM (active)
same,EC50,[4],> 60 µM (not active)
O=c1c(-c2cccc(Cl)c2)nc2cncnc2n1C1CC1,AC50,Cytochrome P450 3A4,15.8 µM (inconclusive)
COc1ccc(N2CCN(C3CCCCC3NS(=O)(=O)c3ccc(Cl)cc3)CC2)cc1 (centres undefined),EC50,[2],4.33 µM (active)
CC(C)(CNC(=O)c1cc(Cl)c(O)c(Cl)c1)N1CCCCC1,IC50,[1],> 47.1 µM (inactive)
same,EC50,[2],> 53 µM (inactive)
O=C(CSc1nnc(CNc2ccc(F)cc2)o1)OC1CCCCC1,AC50,Cytochrome P450 2C9,17.8 µM (inconclusive)
Cc1cc(C)n(-c2nc(SCCN(C)C)c3c4c(sc3n2)COC(C)(C)C4)n1,EC50,[3],0.836 µM (active)
same,EC50,[4],> 30 µM (not active)
CCOC(=O)C1=C(CCc2ccccc2)NC(=O)NC1c1cccc([N+](=O)[O-])c1 (centres undefined),IC50,[1],> 47.1 µM (inactive)
same,EC50,[2],> 53 µM (inactive)
COc1ccc(NS(=O)(=O)c2cc(-c3nnnn3C)ccc2OC)cc1,AC50,Cytochrome P450 2C9,25.1 µM (inconclusive)
CCCC(=O)NC(=S)Nc1ccc(S(=O)(=O)Nc2ccc(OCC)cc2)cc1,EC50,[2],> 53 µM (inactive)
O=C(CCNS(=O)(=O)c1cccs1)N1CCc2ccccc2C1,AC50,Cytochrome P450 3A4,14.1 µM (inconclusive)
O=c1[nH]c2ccc(Cl)cc2c(-c2ccccc2)c1N1CCN(c2ccccn2)CC1,EC50,Streptokinase A,3.83 µM (active)
N=C(N)SCc1cccc(-c2nc3ccccc3c(=O)o2)c1,AC50,Cytochrome P450 2C9,5.01 µM (inconclusive)
CCOc1ccc(Nc2nc(N3CCCC3)nc(N3CCN(c4ccc(OC)cc4)CC3)n2)cc1,EC50,[3],2.73 µM (active)
same,EC50,[4],> 60 µM (not active)
CCCNCCC(c1ccco1)c1ccccc1OC (centres undefined),IC50,[1],> 47.1 µM (inactive)
same,EC50,[2],> 53 µM (inactive)
Fc1ccc(Cn2nnnc2C(c2ccc(Cl)cc2)N2CC=C(c3ccc(F)cc3)CC2)cc1 (centres undefined),EC50,[3],1.34 µM (active)
same,EC50,[4],> 60 µM (not active)
Cc1noc(C)c1CSc1nc2sc(C)c(C)c2c(=O)n1-c1ccccc1,EC50,[3],1.02 µM (active)
same,EC50,[4],> 60 µM (not active)
O=[N+]([O-])c1nn(-c2ccc3c(c2)OCCO3)[n+]([O-])c1NC1CCCC1,EC50,[3],0.88 µM (active)
same,EC50,[4],> 30 µM (not active)
Cc1ccc(OCC(=O)Nc2ccc(S(=O)(=O)Nc3onc(C)c3C)cc2)cc1,AC50,Cytochrome P450 3A4,35.5 µM (inconclusive)
CO[C@H]1C[C@@H](O[C@@H]2[C@H](C)[C@H](O[C@@H]3O[C@@H](C)C[C@@H](N(C)C)[C@@H]3O)[C@H](C)C[C@]3(CO3)C(=O)[C@H](C)[C@H](O)[C@H](C)[C@H](C)OC(=O)[C@@H]2C)O[C@@H](C)[C@H]1O,AC50,Cytochrome P450 3A4,12.6 µM (inconclusive)

# Source: ChEMBL document CHEMBL1201862, “PubChem BioAssay data set” (2004)
